For 14 molecules, TGI results are on record in PubChem BioAssay (NCI).

What all share (assay): NCI tumour cell line growth inhibition, 48 h
The test system of assay [1] is HOP-62 NSCLC.
Assay [2] deals with COLO 205 colon.
For assay [3], the system named is NCI-H23 lung.
Assay [4] concerns M14 melanoma.
Assay [5] deals with HOP-92 NSCLC.
Assay [6] has as its system IGROV1 ovarian.
For assay [7], the system named is UACC-62 melanoma.
Assay [8] relates to MDA-MB-435.
Assay [9] has as its system RXF 393 renal.
Assay [10] deals with SR leukemia.

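A five-concentration, 48-hour dose response in 96-well plates underlies each endpoint, interpolated linearly between surrounding concentrations. At the TGI there is no net growth.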

`Cc1ccc(NC(c2ccccc2)P(=O)(c2ccccc2)c2ccccc2)cc1` (stereo unspecified): the TGI was greater than 100 µM in assay [1]; greater than 100 µM in assay [2]; greater than 100 µM in assay [3]; greater than 100 µM in assay [4]; 67.4 µM in assay [5]; greater than 100 µM in assay [6]. For the same molecule, the TGI in [7], in assay [8], in [9] and in [10] was greater than 100 µM each time.

For the molecule `Clc1ccc(Cc2nc3cc(Cl)c(Cl)cc3n2CC2CCCN3CCCCC23)cc1` (stereo unspecified), the TGI came out at 40.8 µM in assay [1]; 22.3 µM in assay [2]; 7.95 µM in assay [4]; 24.9 µM in assay [5]; 21 µM in [6]; 21.2 µM in assay [7]. Besides, the results for the TGI in [8], in assay [9] and in [10] were 40.4 µM, 37.6 µM and 15.1 µM, respectively.

As to `COc1ccc2nc(-c3ccc(N)cc3)sc2c1`, the TGI in assay [1], in assay [2], in assay [3], in assay [4], in [5] and in assay [6] was greater than 100 µM throughout. Besides, the TGI in [7], in [8], in [9] and in assay [10] was greater than 100 µM throughout.

Consider `Cc1ccc([N+](=O)[O-])cc1S(=O)(=O)Nc1ccc(C2=NN(S(=O)(=O)c3cc([N+](=O)[O-])ccc3C)C(c3ccccc3O)C2)cc1` (stereo unspecified), for which the TGI in [1], in [2], in assay [3], in assay [4], in assay [5] and in [6] was greater than 100 µM in each case. The TGI in assay [7], in [8], in assay [9] and in [10] was greater than 100 µM each time.

As for `NC1CC(=O)c2c(I)sc(I)c21` (stereo unspecified), the TGI in [1] was 40.1 µM; in assay [2] it was greater than 63 µM; in [3], 35 µM; in [4] it was greater than 77.1 µM; in assay [5], 43.5 µM; in assay [6] it was 33.1 µM. Besides, the TGI is 32.6 µM in [7], 38.7 µM in assay [8], greater than 60.8 µM in assay [9] and 48.4 µM in [10].

Regarding `CC(C)=CC(=O)c1[nH]c2ccccc2c1CC(=O)NCCc1cnc[nH]1`, the TGI in [2], in assay [3], in assay [4], in assay [5], in assay [6] and in assay [7] was greater than 100 µM in each case. For the same molecule, the TGI in assay [8], in assay [9] and in assay [10] was greater than 100 µM throughout.

Turning to `CCOC(=O)c1c(N2CCN(C)CC2)[nH]c(=O)c(C(c2c(Cl)cccc2Cl)c2c(O)c(C(=O)OCC)c(N3CCN(C)CC3)[nH]c2=O)c1O`, the TGI in assay [1] is greater than 100 µM; in [2] it was greater than 100 µM; in [3], greater than 100 µM; in assay [4], 68.9 µM; in assay [5], 37.6 µM; in [6] it was 39.2 µM. The TGI in [7] amounted to 39.5 µM; in [8] it was 57.9 µM; in [9], 38.8 µM; in assay [10], 67.6 µM.

As to `CC[C@@]1(O)C(=O)OCc2c1cc1n(c2=O)Cc2c-1nc1ccc(N)cc1c2CC[Si](C)(C)C`, the TGI in assay [1] is 0.368 µM; in [2], 0.197 µM; in [3] it was less than 0.01 µM; in assay [4] it was less than 0.0499 µM; in [5], 1.07 µM; in assay [6], 0.469 µM. For the same molecule, the TGI was less than 0.0104 µM in assay [7], 4.54 µM in assay [8], 0.257 µM in assay [9] and less than 0.01 µM in [10].

As for `CN(C)CCCn1c(-c2ccc(Br)cc2)csc1=Nc1ccccc1`, the TGI in assay [1] is 26.4 µM; in assay [3], 27.8 µM; in [4], 32.9 µM; in assay [5] it was greater than 100 µM; in assay [7] it was 29.6 µM; in assay [8], 61.5 µM. Moreover, the results for the TGI in assay [9] and in assay [10] were 29.8 µM and 46.8 µM, respectively.

Turning to `CCc1nnc2sc(-c3ccc(-c4ccccc4[N+](=O)[O-])o3)nn12`, the TGI in assay [1], in assay [2], in [3], in assay [4], in [5] and in [6] was greater than 100 µM each time. The TGI in assay [7] was greater than 100 µM; in [8], 49.8 µM; in assay [9], greater than 100 µM; in [10] it was 72.6 µM.

For the molecule `O=C1N[C@@H]([C@H]2CC[C@H](Cl)CN2)C(=O)N[C@H]1[C@H]1CC[C@H](Cl)CN1`, the TGI in [1] is 4.04 µM; in assay [2] it was 9.68 µM; in assay [3], 8.76 µM; in assay [4] it was 2.3 µM; in assay [5], 7.95 µM; in assay [6], 37.6 µM. For the same molecule, the TGI in assay [7] amounted to 3.53 µM; in assay [8], 32 µM; in [9], 12.2 µM; in assay [10], 6.18 µM.

As to `COc1cc2c(c(O)c1OC)C(O)C1CCC(=O)N1C2c1ccc2c(c1)OCO2` (stereo unspecified), the TGI in assay [1], in assay [2], in assay [3], in [4], in assay [5] and in assay [6] was greater than 100 µM in each case. Moreover, the TGI in [7], in [8], in [9] and in [10] was greater than 100 µM throughout.

For the molecule `COc1ccc2cc(CNCCCCCCNC(=O)Nc3cccc4ccccc34)ccc2c1`, the TGI in [1], in assay [2], in assay [3], in [4], in assay [5] and in assay [6] was greater than 100 µM in each case. Besides, the TGI in assay [7], in assay [8], in assay [9] and in assay [10] was greater than 100 µM throughout.

On to `O=C1OCOC2(CCCC2)C1c1ccccc1` (stereo unspecified), for which the TGI in assay [1], in assay [2], in assay [3], in [4], in [5] and in assay [6] was greater than 100 µM in each case. Besides, the TGI in [7], in [8], in assay [9] and in [10] was greater than 100 µM in each case.
